Series [1] in a line: In vitro half-life by substrate depletion in pHLS9. The following applies: human, pooled human liver S9 fraction (pHLS9), pHLS9, 25 µM substrate, sampling 0-180 min, read-out: in vitro half-life (t1/2). Type of series: in vitro ADME. Here is the method:
Incubations with pHLS9 were performed in accordance with previous publications and minor adjustments (Richter et al. [2017]). First, 25 μg/mL alamethicin (UGT reaction mix B), pHLS9 (2 mg microsomal protein/mL), 0.1 mM AcCoA, 2.3 mM acetylcarnitine, 8 U/mL carnitine acetyltransferase, 2.5 mM isocitrate, 0.8 U/mL isocitrate dehydrogenase, 100 U/mL superoxide dismutase, 0.6 mM NADP^+ and 2.5 mM Mg^2+ were preincubated for 10 min at 37 °C. Then, 2.5 mM UDP-glucuronic acid (UGT reaction mix A), 40 µM PAPS, 1.2 mM SAM, 1 mM DTT and 10 mM GSH were added. The reaction was started by adding the respective substrate MDPM, MDMA, or quetiapine (25 µM each). MDMA and quetiapine were incubated as positive controls. Negative control samples without enzymes and blank samples without substrates were incubated to identify not metabolically formed compounds and to confirm the absence of interfering compounds. […] Aliquots (50 µL) were transferred to a new reaction tube after 60 and 360 min. […] Samples were vortexed, stored at − 20 °C for 30 min, and centrifuged for 2 min at 18,407×g.
Incubations to investigate in vitro half-life were performed under the same incubation conditions as described above and done in duplicate. […] A t-test was performed to compare absolute peak areas of the incubation group and the control group at 0 min. […]
In vitro half-life was determined by measuring substrate depletion. […]

A further series concerns the target CYP2D6 (Homo sapiens, UniProt P10635). Description: CYP inhibition cocktail assay in pHLM, CYP2D6 (dextromethorphan). Here is the method: (§1) A modified dual-cocktail based method (Dinger et al. [2014b]) was used. Substrate cocktail A consisted of 8.9 µM dextromethorphan (CYP2D6), 86 µM testosterone (CYP3A4), 3.5 µM diclofenac (CYP2C9), and 12 µM phenacetin (CYP1A2). Substrate cocktail B included 30 µM bupropion (CYP2B6), 2 µM amodiaquine (CYP2C8) and 21 µM omeprazole (CYP2C19). Substrate concentrations were near their respective Michaelis–Menten constant (Km) values (Dinger et al. [2014a]) and all concentrations are final. Enzyme inhibition was investigated using a positive control, a test group, a control group, an interference group, and a negative control. In the test group, specific inhibitors were replaced by MDPM (20 µM). Instead of inhibitors, phosphate buffer was used in the control group. Enzymes were replaced with phosphate buffer in the negative control group. The interference group was incubated like the control group, but the reaction was stopped with 20 µM MDPM in acetonitrile, also containing 2.5 µM trimipramine-d3. All groups were incubated with a NADPH-regenerating system, consisting of 5 mM isocitrate, 2 U/mL isocitrate dehydrogenase, 5 mM Mg^2+, and 1.2 mM NADP^+. Further, substrate cocktail A or B, 90 mM phosphate buffer (pH 7.4), and 200 U/mL superoxide dismutase were added to each group. […] All groups were preincubated for 10 min at 37 °C. Then, pHLM (0.4 mg microsomal protein/mL) was added to each group except the negative control. Incubations were done for 15 min at 37 °C. Therefore, 50 µL of acetonitrile (− 20 °C) containing 2.5 µM trimipramine-d3 as internal standard was added. Incubations were done in triplicates and organic solvent in the incubation mixture was below 1% (Chauret et al. [1998]). Afterwards the samples were vortexed and centrifuged for 2 min at 18,407×g. 70 µL of the supernatant were transferred to autosampler vials and 10 µL were injected onto the LC-HRMS/MS system. Enzyme inhibition was evaluated by metabolite formation. […] The following settings were used: unpaired; one-tailed; significance level, 0.05; confidence intervals, 99%.

In another series the target is CYP2C9 (Homo sapiens, UniProt P11712). The series can be described thus: CYP inhibition cocktail assay in pHLM, CYP2C9 (diclofenac). Conditions: inhibitor 20 µM. Here is the method:
as §1

For the next series, the target named is T1, CYP2C8 (Homo sapiens, UniProt P10632).
T1 sequence (P10632 1-490): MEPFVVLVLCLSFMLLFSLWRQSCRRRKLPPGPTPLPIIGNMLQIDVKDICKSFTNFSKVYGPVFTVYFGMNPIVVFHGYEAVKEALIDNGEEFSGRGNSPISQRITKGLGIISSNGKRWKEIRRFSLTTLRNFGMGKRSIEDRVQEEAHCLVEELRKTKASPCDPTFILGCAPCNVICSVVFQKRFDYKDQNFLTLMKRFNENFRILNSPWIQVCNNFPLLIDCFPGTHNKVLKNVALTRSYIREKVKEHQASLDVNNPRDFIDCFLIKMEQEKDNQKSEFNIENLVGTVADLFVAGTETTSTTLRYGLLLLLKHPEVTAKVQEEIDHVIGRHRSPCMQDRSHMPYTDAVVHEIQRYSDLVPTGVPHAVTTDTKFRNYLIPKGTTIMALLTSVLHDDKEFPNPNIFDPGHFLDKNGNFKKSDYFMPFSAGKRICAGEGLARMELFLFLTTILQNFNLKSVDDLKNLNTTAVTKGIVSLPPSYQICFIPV
The series can be described thus: CYP inhibition cocktail assay in pHLM, CYP2C8 (amodiaquine). Conditions: inhibitor 20 µM. Here is the method:
as §1

Sequence of CYP2D6 (P10635 whole entry): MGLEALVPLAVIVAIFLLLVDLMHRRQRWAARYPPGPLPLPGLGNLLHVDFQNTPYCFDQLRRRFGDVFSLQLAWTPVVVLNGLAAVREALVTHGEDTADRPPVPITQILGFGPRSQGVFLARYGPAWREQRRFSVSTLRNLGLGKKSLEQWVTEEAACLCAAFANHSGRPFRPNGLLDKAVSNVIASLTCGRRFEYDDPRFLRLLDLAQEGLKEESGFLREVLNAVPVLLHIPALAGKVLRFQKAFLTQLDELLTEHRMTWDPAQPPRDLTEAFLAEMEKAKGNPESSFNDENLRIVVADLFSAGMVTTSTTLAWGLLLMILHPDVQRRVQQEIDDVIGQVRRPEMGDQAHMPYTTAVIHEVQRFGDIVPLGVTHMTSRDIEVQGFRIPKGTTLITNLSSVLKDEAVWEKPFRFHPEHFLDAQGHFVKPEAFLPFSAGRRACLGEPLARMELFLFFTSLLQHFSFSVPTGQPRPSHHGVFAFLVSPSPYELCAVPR
Sequence of CYP2C9 (P11712 whole entry): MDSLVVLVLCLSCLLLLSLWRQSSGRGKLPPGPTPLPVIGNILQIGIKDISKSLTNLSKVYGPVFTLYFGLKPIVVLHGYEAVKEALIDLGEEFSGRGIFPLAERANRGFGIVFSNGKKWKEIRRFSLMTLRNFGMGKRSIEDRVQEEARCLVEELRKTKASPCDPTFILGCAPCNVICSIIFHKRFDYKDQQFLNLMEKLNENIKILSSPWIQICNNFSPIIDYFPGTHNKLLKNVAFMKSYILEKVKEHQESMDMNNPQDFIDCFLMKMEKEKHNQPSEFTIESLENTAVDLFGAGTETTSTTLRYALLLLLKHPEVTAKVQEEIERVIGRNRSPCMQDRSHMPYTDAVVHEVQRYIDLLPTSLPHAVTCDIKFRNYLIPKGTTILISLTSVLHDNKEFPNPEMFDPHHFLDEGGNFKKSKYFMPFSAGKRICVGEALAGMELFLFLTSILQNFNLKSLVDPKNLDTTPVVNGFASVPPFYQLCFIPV

By inhibition is commonly meant the share of the control response that was lost under treatment. Low readings indicate a weak effect, high ones a strong effect. Consider `CC1NCCOC1c1ccc2c(c1)OCO2` (stereo not shown) [MDPM, 2-(1,3-benzodioxol-5-yl)-3-methylmorpholine], for which the half-life at 25 µM in series [1] was more than 3 h. Moreover, at CYP2D6 (human, pH 7.4), the inhibition at 15 min, 20 µM stood at 77%. The CYP2D6 metabolite formation on CYP2D6 (inhibitor 20 µM, dextromethorphan 8.9 µM, pHLM 0.4 mg/mL, 15 min, control without inhibitor = 100%) was 23%. Moreover, the CYP2C9 metabolite formation at CYP2C9 (diclofenac 3.5 µM, pHLM 0.4 mg/mL, 15 min, control without inhibitor = 100%) was 115%. On CYP2C9 (diclofenac, pHLM, t-test versus control), the “inhibition of CYP2C9” value is “no significant inhibition”. At CYP2C8 (amodiaquine 2 µM, pHLM 0.4 mg/mL, 15 min, control without inhibitor = 100%), the CYP2C8 metabolite formation turned out to be 105%. Also, at CYP2C8 (amodiaquine, pHLM, t-test versus control), the “inhibition of CYP2C8” value is recorded as “no significant inhibition”.

The values above are taken from publication PMC11968506, “Toxicokinetics and analytical toxicology of the phenmetrazine-derived new psychoactive substance 3,4-methylenedioxyphenmetrazine studied by means of in vitro systems” (Archives of Toxicology, 2025).
